According to article PMC9115112, “A2B adenosine receptor antagonists rescue lymphocyte activity in adenosine-producing patient-derived cancer models” (Journal for Immunotherapy of Cancer, 2022):

What was measured:
[1] = tested on: breast cancer patient-derived spheroid cultures; assay: Cell viability assay (Cell-Titer Glo) on breast cancer patient-derived spheroid cultures; type: cell-based, human; conditions: 4 days exposure
Procedure: From breast cancer single cell suspension, 3×10^3 cells were seeded and cultured in an ultra-low attachment 384-well plate (Corning) with DMEM-F12 media (Thermo Fisher Scientific) containing 20% FBS and 1% PS. Treatment with A2BAR antagonist at various concentrations are stated in the Results section. After 4 days, Cell-Titer Glo reagent (Promega) was used to measure cell viability in accordance to the manufacturer’s instruction. EnSpire Multilabel Reader (PerkinElmer) was used to read the luminescence.
Figure 2 Antitumor effect of A2BAR antagonists on breast cancer patient-derived spheroid cultures. (A) Relative cell viability to untreated antagonist control spheroid cultures (n=3, mean±SD) measured by Cell-Titer Glo assay. (B) Representative real time imaging of spheroid cultures over 6 days under 4X objective, with untreated (first column) or added 12 µM concentration respective of A2BAR antagonists indicated. Red mask demarcates area with cells surrounding the spheroid. Green line indicates estimated diameter of spheroid body. (C) Relative area of the representative spheroid growth (as shown in B) normalized to day 1. Statistical analysis—2-way (A) and 1-way (C) ANOVA with Dunnett’s multiple comparisons to untreated antagonist control was performed with *p<0.05, **p<0.01, ***p<0.001, and ****p<0.0001.

[2] = tested on: autologous TILs and patient-derived sarcoma spheroids; assay: Spheroid infiltration by autologous TILs (real-time imaging and flow cytometry); type: cell-based, human; conditions: antagonist 12 µM, 3 days
Procedure: Spheroids were prepared using patient-derived sarcoma cell lines. 1×10^4 cells were seeded per well in 96-well ultra-low attachment plate with DMEM-F12 media containing 20% FBS and 1% PS for 5 days. 3×10^4 CSFE-labeled autologous expanded TILs, at Effector:target ratio of 3:1, were added to the spheroid at day five with A2BAR antagonism treatment at 12 µM. After 3 days, spheroid was removed and split into two groups—IN and OUT. […] Spheroids were washed with PBS at least two times. GentleMACS tumor dissociation kit (Miltenyi Biotec) was used to digest the spheroids for FC analysis.
Brightfield and phase contrast images under 4X objective were acquired every 6 hours on IncuCyte S3 system (Essen BioScience). For breast cancer patient-derived spheroid culture, 1×10^4 cells per well were seeded with A2BAR antagonist at 12 µM treatment for 6 days real time imaging. For spheroid infiltration, after the addition of CSFE-labeled autologous expanded TILs and treatment with A2BAR antagonist at 12 µM, green fluorescence images were acquired for 3 days. All spheroid invasion analysis was performed using top hat segmentation with IncuCyte software.
Cell surface was stained with mouse monoclonal antihuman antibodies against CD3, CD4, CD8, CD45RA, CD56 and CD19 listed in online supplemental table 1. Cell surface antibodies and live/dead (L/D) marker were incubated with samples at 4°C for 20 min after washing two times with flow cytometry buffer containing 5% FBS in PBS. For spheroid infiltrated TIL phenotyping, digested IN and OUT spheroids were stained with cell surface marker and analyzed on NovoCyte (ACEA Bioscience) with the use of FlowJo software (Tree Star) by gating single cell based on forward and side scatters. A representative gating strategy for CD8 naïve T cells is shown in online supplemental figure 3A. Compensated flow cytometry standard (FCS) files with only live cells were concatenated for downstream tSNE analysis using the ‘cytofkit’ R package (https://github.com/JinmiaoChenLab/cytofkit).
Figure 6 Infiltration of TILs into autologous patient-derived sarcoma spheroids after A2BAR antagonist treatment. (A) Representative real-time imaging of spheroid TIL infiltration over 3 days under 4× objective. Green areas demarcate CFSE-labeled TILs infiltrated into the red boundary tumor spheroid. (B) Relative TIL infiltration into autologous spheroids (n=8 donors) measured by flow cytometer. Antagonist 12 µM was added with CSFE-labeled TILs after spheroid formation on day five. (C) Representative flow cytometry plot of CFSE positive TILs in CD73+ tumor spheroid. (D) tSNE analysis and (E) annotated pie chart of TILs within (IN) and outside of (OUT) the spheroids without treatment (n=8 donors, indicated within the pie chart). Wilcoxon Rank Sum test was performed to compare the various IN vs OUT adhesion markers. Expression of (F) CD3 T cells, (G) CD49a+ CD103+ among CD8 T cells and (H) CD69 MFI among CD4 T cells IN and OUT of the spheroids without treatment (n=8 donors). (I) Relative CD8/CD4 TIL ratio IN the spheroids. Differential expression of relative (J–L). CD49a+ CD103+ cells IN the spheroids (n=8 donors) of CD3, CD8, and CD4 TILs. Antagonist 12 µM was added for J–L. Outlier is presented as diamond shape and defined by Tukey’s rule, which is not included in statistical analysis. Box plots with minimum, first quartile, median, third quartile, and maximum are presented. Unpaired and non-parametric statistical analysis—Mann-Whitney test was performed against untreated control with *p<0.05, **p<0.01, ***p<0.001, and ****p<0.0001. CFSE, carboxyfluorescein succinimidyl ester; TIL, tumor infiltrating lymphocyte; tSNE, T-distributed stochastic neighboring embedding. TEXT PRINTED IN THE PICTURE: (C) ISAM-R56A: TILs 13.0 DOUBTS OF THE COPYIST ABOUT THIS PICTURE: Panel C, ISAM-R56A, TILs: the print is small, 13.0 could be 13.8 or 13.6 / Panel C also prints a gate label 'TILs 3.17' for the Untreated control. […]

| SMILES | Relative cell viability of breast cancer spheroids vs untreated control ([1]; n=3) | TIL infiltration into autologous sarcoma spheroids vs untreated (real-time imaging) ([2]; n=8 donors) | Relative cell viability of breast cancer spheroids vs untreated control ([1]; n=3, listed as ISAM–M89A) | Median increased TIL infiltration vs untreated ([2]; n=8 donors, not statistically significant) [%] | TIL infiltration into spheroids by flow cytometry (CSFE positive, CD73 negative TILs) [2] | TIL infiltration into autologous sarcoma spheroids vs untreated (real-time imaging) ([2]; n=8 donors, listed as ISAM–R56A) |
| --- | --- | --- | --- | --- | --- | --- |
| CC1=C(C(=O)OC(C)C)C(c2ccco2)n2c(nc3ccccc32)N1 (stereo not drawn) [ISAM-140, isopropyl 4-(furan-2-yl)−2-methyl-1,4-dihydrobenzo[4 5] imidazo[1,2 a]pyrimidine-3-carboxylate] | significantly reduced | did not have any effect |  |  |  |  |
| CC1=C(C(=O)OC(C)C)C(c2ccoc2)n2c(nc3cc(Cl)ccc32)N1 (stereo not drawn) [ISAM-M89A] | more pronounced effect |  | significantly reduced | 7 |  |  |
| CC1=C(C(=O)OC(C)C)C(c2ccco2)n2c(nc3ccccc32)N1Cc1ccccc1F (stereo not drawn) [ISAM-R56A] | significantly reduced | overall improved TIL infiltration |  |  | significantly enhanced TIL infiltration | improved TILs infiltration |
